The target in this experiment is T1, human CXCR6 (Homo sapiens, UniProt O00574).
T1 construct: expressed in transfected cells
T1 sequence (O00574 whole entry): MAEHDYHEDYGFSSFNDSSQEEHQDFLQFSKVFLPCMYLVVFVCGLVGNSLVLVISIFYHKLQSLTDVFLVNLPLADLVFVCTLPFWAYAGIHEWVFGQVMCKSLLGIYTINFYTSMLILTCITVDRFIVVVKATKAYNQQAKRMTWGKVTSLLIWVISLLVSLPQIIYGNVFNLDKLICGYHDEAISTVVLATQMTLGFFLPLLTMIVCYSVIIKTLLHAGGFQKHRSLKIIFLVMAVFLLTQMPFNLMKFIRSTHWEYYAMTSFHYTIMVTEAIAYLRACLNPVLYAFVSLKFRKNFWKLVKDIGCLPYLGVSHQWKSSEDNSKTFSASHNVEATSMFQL
The experiment in a line: Radioligand Binding Assay (125I-CXCL16 displacement). The conditions noted are these: L1.2 cells stably transfected with human CXCR6 cDNA, 0.1 nM 125I-CXCL16, 4° C., three-hour incubation; read-out: Potency (IC50). The method, then: L1.2 cells stably transfected with human CXCR6 cDNA ([…]) were incubated at 4° C. in HBSS containing 0.1 % BSA and 0.1 nM of ^125I-CXCL16 plus various concentrations of Compound. Following a three-hour incubation period, cells were aspirated onto polyethyleneimine-treated GF/B glass fiber filters (PerkinElmer, Waltham, MA) with a cell harvester (Tomtec, Hamden, CT) and washed twice with washing buffer (25 mM Hepes, 500 mM NaCl, 1 mM CaCI2, 5 mM MgCI2, pH 7.1). Fifty µl of MicroScint-20 (PerkinElmer, Waltham, MA) was added to each well of the filters, and radioactive emissions (cpm) were measured on a Packard TopCount Scintillation counter (PerkinElmer, Waltham, MA). IC50 values were calculated with GraphPad Prism using 3 parameter nonlinear regression. […]
Consider `CCOc1cc(NC(=O)[C@H]2CC(C)=C(C)C[C@@H]2C(=O)O)ccc1S(=O)(=O)Nc1cccc(OC(F)(F)F)c1` [Example 1.096], for which the IC50 is at most 0.2 µM. Turning to `CCOc1cc(NC(=O)Cc2ccccc2)ccc1S(=O)(=O)Nc1cccc(OC(F)(F)F)c1` [Example 1.097], the IC50 was at most 0.2 µM. In the case of `Cc1cc(NC(=O)c2ccccn2)ccc1S(=O)(=O)Nc1cccc(C(F)(F)F)c1` [Example 1.098], the IC50 lay within 2 to 20 µM. The same measure for `CCCc1cc(NC(=O)[C@@H](CO)C2CC2)ccc1S(=O)(=O)Nc1cccc(OC(F)(F)F)c1` [Example 1.099]: at most 0.2 µM; for `Cc1cc(NC(=O)c2ccn(C)c(=O)c2)ccc1S(=O)(=O)Nc1cccc(OC(F)(F)F)c1` [Example 1.100]: 0.2 to 0.75 µM. The same measure for `CCOc1cc(NC(=O)[C@@H](CO)C(C)C)ccc1S(=O)(=O)Nc1cccc(OC(F)(F)F)c1C` [Example 1.101]: 2 to 20 µM; for `CCOc1cc(NC(=O)[C@@H](CO)C(C)C)ccc1S(=O)(=O)Nc1ccc(C)c(C(F)(F)F)c1` [Example 1.102]: at most 0.2 µM; for `CCOc1cc(NC(=O)c2cc[nH]c(=O)c2)ccc1S(=O)(=O)Nc1cccc(OC(F)(F)F)c1` [Example 1.103]: at most 0.2 µM. For `CCOc1cc(NC(=O)C(CN)c2ccccc2)ccc1S(=O)(=O)Nc1cccc(OC(F)(F)F)c1` (centres unmarked) [Example 1.104] the value was at most 0.2 µM; for `CCOc1cc(NC(=O)[C@@H](O)C(C)C)ccc1S(=O)(=O)Nc1cccc(OC(F)(F)F)c1` [Example 1.105], at most 0.2 µM.

In the case of `CCOc1cc(NC(=O)CC(O)c2nccn2C)ccc1S(=O)(=O)Nc1cccc(OC(F)(F)F)c1` (centres unmarked) [Example 1.106], the concentration for half-maximal inhibition (IC50) fell in the range of 2 to 20 µM. The same measure for `CCOc1cc(NC(=O)[C@@H](NC=O)C(C)CC)ccc1S(=O)(=O)Nc1cccc(OC(F)(F)F)c1` (some centres unmarked) [Example 1.108]: at most 0.2 µM. Take `CCOc1cc(NC(=O)[C@@H](N)CC(C)C)ccc1S(=O)(=O)Nc1cccc(OC(F)(F)F)c1` [Example 1.109]: the half-maximal inhibitory concentration (IC50) was at most 0.2 µM. For `CCOc1cc(NC(=O)c2ccn(C)c(=O)c2)ccc1S(=O)(=O)Nc1cccc(OC(F)(F)F)c1` [Example 1.110] the value was at most 0.2 µM. The same measure for `COc1cc(NC(=O)[C@H]2CCCC[C@H]2O)ccc1S(=O)(=O)Nc1cccc(OC(F)(F)F)c1` [Example 1.111]: 0.2 to 0.75 µM. `COc1cc(NC(=O)c2ccnn2C)ccc1S(=O)(=O)Nc1cc(C(F)(F)F)cc(C(F)(F)F)c1` [Example 1.112]: the IC50 lay in the range of 2 to 20 µM.

Take `CCOc1cc(NC(=O)C(CO)C2CCCCC2)ccc1S(=O)(=O)Nc1cccc(OC(F)(F)F)c1` (centres unmarked) [Example 1.113]: the IC50 was at most 0.2 µM. For `COc1cc(NC(=O)c2ccnn2C)ccc1S(=O)(=O)Nc1ccc(Cl)cc1` [Example 1.114] the value was 0.2 to 0.75 µM; for `COc1cc(NC(=O)c2ccns2)ccc1S(=O)(=O)Nc1cccc(C(F)(F)F)c1` [Example 1.115], at most 0.2 µM. For `Cc1cc(NC(=O)c2nccn2C)ccc1S(=O)(=O)Nc1cccc(C(F)(F)F)c1` [Example 1.116] the value was 2 to 20 µM; for `CCOc1cc(NC(=O)c2ccnc(N)c2)ccc1S(=O)(=O)Nc1cccc(OC(F)(F)F)c1` [Example 1.117], at most 0.2 µM.

For the compound `CCOc1cc(NC(=O)C(CC2CCOCC2)C(=O)O)ccc1S(=O)(=O)Nc1cccc(OC(F)(F)F)c1` (centres unmarked) [Example 1.118], the concentration for half-maximal inhibition (IC50) is at most 0.2 µM. The same measure for `CCOc1cc(NC(=O)[C@@H](CO)c2ccccc2)ccc1S(=O)(=O)Nc1cccc(OC(C)C)c1` [Example 1.119]: 0.2 to 0.75 µM; for `CCOc1cc(NC(=O)C2CCC(=O)N(CC)C2)ccc1S(=O)(=O)Nc1cccc(OC(F)(F)F)c1` (centres unmarked) [Example 1.120]: 2 to 20 µM.

As to `CCOc1cc(NC(=O)[C@@H](CO)c2ccccc2)ccc1S(=O)(=O)Nc1ccc2c(c1)OC(F)(F)O2` [Example 1.121], the concentration for half-maximal inhibition (IC50) was in the range of 2 to 20 µM. The same measure for `COc1cc(NC(=O)CC(C)(C)O)ccc1S(=O)(=O)Nc1cccc(C(F)(F)F)c1` [Example 1.122]: 2 to 20 µM. The same measure for `CCOc1cc(NC(=O)C2CCOCC2)ccc1S(=O)(=O)Nc1ccc(C)c(OC(F)(F)F)c1` [Example 1.123]: at most 0.2 µM; for `CCCCOc1cc(NC(=O)c2ccns2)ccc1S(=O)(=O)Nc1cccc(C(F)(F)F)c1` [Example 1.124]: 2 to 20 µM.

`COc1cc(NC(=O)c2ccnn2C)ccc1S(=O)(=O)Nc1ccc(OC(F)(F)F)c(C)c1` [Example 1.125]: the IC50 is 0.75 to 2 µM. For `CCOc1cc(NC(=O)c2cc(=O)n(C)cc2C)ccc1S(=O)(=O)Nc1cccc(OC(F)(F)F)c1` [Example 1.126] the value was at most 0.2 µM; for `CCOc1cc(NC(=O)C(COC)C(=O)O)ccc1S(=O)(=O)Nc1cccc(OC(F)(F)F)c1` (centres unmarked) [Example 1.127], 0.2 to 0.75 µM; for `CCOc1cc(NC(=O)C(CO)CCC(C)C)ccc1S(=O)(=O)Nc1cccc(OC(F)(F)F)c1` (centres unmarked) [Example 1.128], at most 0.2 µM. The same measure for `COc1cc(NC(=O)[C@@H](O)c2ccccc2)ccc1S(=O)(=O)Nc1cccc(OC(F)(F)F)c1` [Example 1.129]: at most 0.2 µM. The same measure for `CC(=O)Nc1ccc(S(=O)(=O)Nc2cccc(C(F)(F)F)c2)c(Br)c1` [Example 1.130]: 2 to 20 µM; for `CCOc1cc(NC(=O)CC(O)CC2CCOCC2)ccc1S(=O)(=O)Nc1cccc(OC(F)(F)F)c1` (centres unmarked) [Example 1.131]: 2 to 20 µM; for `CC(=O)Nc1ccc(S(=O)(=O)Nc2cccc(OC(F)(F)F)c2)c(C(C)C)c1` [Example 1.132]: 2 to 20 µM. As for `CCOc1cc(NC(=O)C(C(C)C)C(C)O)ccc1S(=O)(=O)Nc1cccc(OC(F)(F)F)c1` (centres unmarked) [Example 1.133], the IC50 was at most 0.2 µM. Regarding `CC(C)[C@H](O)C(=O)Nc1ccc(S(=O)(=O)Nc2cccc(OC(F)(F)F)c2)c(OC(F)(F)F)c1` [Example 1.134], the IC50 was 0.2 to 0.75 µM. The same measure for `CCOc1cc(NC(=O)[C@@H](CO)C2CC2)ccc1S(=O)(=O)Nc1ccc(CC)c(C)c1` [Example 1.135]: at most 0.2 µM. `COc1ccc(C(=O)Nc2ccc(S(=O)(=O)Nc3cccc(C(F)(F)F)c3)c(C)c2)cc1` [Example 1.136]: the IC50 was 0.75 to 2 µM. The same measure for `CCOC(=O)[C@H]1CC=CC[C@@H]1C(=O)Nc1ccc(S(=O)(=O)Nc2cccc(OC(F)(F)F)c2)c(OCC)c1` [Example 1.138]: at most 0.2 µM. For `CCOc1cc(NC(=O)[C@H](CO)C(C)C)ccc1S(=O)(=O)Nc1cccc(OC(F)(F)F)c1` [Example 1.139] the value was at most 0.2 µM. For `COc1cc(NC(=O)C2CCC(O)CC2)ccc1S(=O)(=O)Nc1cccc(C(F)(F)F)c1` (centres unmarked) [Example 1.140] the value was 2 to 20 µM; for `Cn1nccc1C(=O)Nc1ccc(S(=O)(=O)Nc2cccc(C(F)(F)F)c2)c(Cl)c1` [Example 1.141], 0.2 to 0.75 µM. Consider `CCOc1cc(NC(=O)[C@@H](CO)C(C)C)ccc1S(=O)(=O)Nc1ccc(C)c(Cl)c1` [Example 1.142], for which the 50% inhibitory concentration (IC50) was at most 0.2 µM.

Regarding `COCc1cc(NC(=O)[C@@H](CO)c2ccccc2)ccc1S(=O)(=O)Nc1cccc(OC(F)(F)F)c1` [Example 1.143], the IC50 is at most 0.2 µM. For `CCOC(=O)C(C(=O)Nc1ccc(S(=O)(=O)Nc2cccc(OC(F)(F)F)c2)c(OCC)c1)C1CCCC1` (centres unmarked) [Example 1.144] the value was at most 0.2 µM. For the compound `COc1cc(NC(=O)c2ccnn2C)ccc1S(=O)(=O)Nc1cccc(OC(C)C)c1` [Example 1.145], the IC50 lay within 0.75 to 2 µM.

`C=Cc1ccc(NS(=O)(=O)c2ccc(NC(=O)[C@@H](CO)C3CC3)cc2OCC)cc1C` [Example 1.146]: the IC50 is at most 0.2 µM.

In the case of `Cc1cc(NC(=O)N2CCOCC2)ccc1S(=O)(=O)Nc1cccc(C(F)(F)F)c1` [Example 1.148], the IC50 was in the range of 2 to 20 µM.

`CCOc1cc(NC(=O)c2ccc(C)nc2)ccc1S(=O)(=O)Nc1cccc(OC(F)(F)F)c1` [Example 1.149]: the 50% inhibitory concentration (IC50) was at most 0.2 µM. The same measure for `CCc1cc(NC(=O)[C@@H](CO)C2CC2)ccc1S(=O)(=O)Nc1cccc(OC(F)(F)F)c1` [Example 1.150]: at most 0.2 µM. As for `COc1cc(NC(=O)c2ccnn2C)ccc1S(=O)(=O)Nc1ccc(C)c(OC(F)(F)F)c1` [Example 1.151], the IC50 was at most 0.2 µM. Regarding `CCOc1cc(NC(=O)C2CCC(=O)C2)ccc1S(=O)(=O)Nc1cccc(OC(F)(F)F)c1` (centres unmarked) [Example 1.152], the IC50 lay within 0.2 to 0.75 µM.

As for `COc1cc(NC(=O)c2ccnn2C)ccc1S(=O)(=O)Nc1cccc(C(F)(F)F)c1` [Example 1.153], the concentration for half-maximal inhibition (IC50) lay within 0.2 to 0.75 µM. Consider `CCOc1cc(NC(=O)[C@@H](O)C(C)C)ccc1S(=O)(=O)Nc1ccc(Cl)c(OC)c1` [Example 1.154], for which the half-inhibitory concentration (IC50) fell in the range of 0.2 to 0.75 µM. For `CCOc1cc(NC(=O)[C@@H](CO)C(C)C)ccc1S(=O)(=O)Nc1cccc(C(C)C)c1` [Example 1.155] the value was at most 0.2 µM; for `CCCCOc1cc(NC(=O)c2ccnn2C)ccc1S(=O)(=O)Nc1cccc(C(F)(F)F)c1` [Example 1.156], 2 to 20 µM; for `CCOc1cc(NC(=O)c2ccnn2C)ccc1S(=O)(=O)Nc1cccc(OC(F)(F)F)c1` [Example 1.157], at most 0.2 µM. For `CCOc1cc(NC(=O)[C@H](N)C(C)C)ccc1S(=O)(=O)Nc1cccc(OC(F)(F)F)c1` [Example 1.158] the value was at most 0.2 µM; for `CCOc1cc(NC(=O)[C@@H](CO)C(C)C)ccc1S(=O)(=O)Nc1cccc(Cl)c1C(F)(F)F` [Example 1.159], 2 to 20 µM. The same measure for `CCOc1cc(NC(=O)[C@H]2CC=CC[C@H]2C(=O)O)ccc1S(=O)(=O)Nc1cccc(OC(F)(F)F)c1` [Example 1.160]: at most 0.2 µM.

One may read the IC50 as the midpoint of a concentration-inhibition curve.
